Legend:
Assay type in all cases: cell-based
[1] = system: ECHS1 Fibroblast cells; experiment: Propionate potency screen (cell viability, DAPI nuclei count); settings: for concentration-dependent curves: propionate potency screen, FIG. 4; for Propionate assay hits: 10 mM propionate medium, 96 hours, 3-fold serial dilution starting at 10 uM, Z-score >2
Method: The suspension was centrifuged at 200x g for 5 min. The suspension was discarded and the pellet was resuspended in the 10 mM propionate medium (DMEM+10% FBS+10 mM sodium propionate) and seeded at 750 cells/well (50 μL) into the compound wells (1 μM and 10 μM). For the positive control experiment, the cells were suspended in 10 mM propionate medium +5.5 mM glucose +0.01% DMSO and seeded at 750 cells/well (50 μL) into the blank wells. For the negative control experiment, the cells were suspended in the 10 mM propionate medium +0.01% DMSO and seeded at 750 cells/well (50 μL) into the blank wells. […] The plates were then washed 3x with 50 uL/well of PBS. The cells were stained with 25 μL/well of a solution DAPI and left at room temperature for 1 hr. The plates were then washed 3x with 50 uL/well of PBS prior to imaging. Agilent BioTek EL406 Microplate Washer Dispenser was used for the cell fixation and staining protocol. The plates were imaged using GE InCell2200 Cell Analyzer using PerkinElmer Columbus software quantification protocol. The data was analyzed using Genedata, Vortex, and Abase software. A Z-score value of >2 was used for both the Prestwick/Selleck and SPECS library (based on the negative control population) to determine hit selection.
ECHS1 Fibroblast cells were harvested at 70-80% confluent with trypsin and suspended in DMEM+10% FBS. The suspension was centrifuged at 200x g for 5 min. The suspension was discarded and the pellet was resuspended in the either the 5.5 mM galactose medium (DMEM+10% FBS+5.5 mM of galactose) or the 10 mM propionate medium (DMEM+10% FBS+10 mM sodium propionate). […] For the positive control experiment, the cells were suspended in either the 5.5 mM galactose medium or 10 mM propionate medium+5.5 mM glucose+0.01% DMSO and seeded at 750 cells/well (50 μL) into the blank wells. For the negative control experiment, the cells were suspended in the 5.5 mM galactose or 10 mM propionate medium +0.01% DMSO and seeded at 750 cells/well (50 μL) into the blank wells. […] The plates were then washed 3x with 50 μL/well of PBS. The cells were stained with 25 μL/well of a solution of DAPI and left at room temperature for 1 hr. The plates were then washed 3x with 50 μL/well of PBS prior to imaging. Agilent BioTek EL406 Microplate Washer Dispenser was used for the cell fixation and staining protocol. The plates were imaged using GE InCell2200 Cell Analyzer using PerkinElmer Columbus software quantification protocol. The data was analyzed using Genedata, Vortex, and Abase software. A Z-score value of >2 was used for both the Prestwick/Selleck and SPECS library (based on the negative control population) to determine hit selection.

[2] = system: ECHS1 patient-derived fibroblasts; experiment: Mitochondrial respiration assay (Seahorse); settings: 48 hours; for respiration: glucose or galactose conditions, 1, 5 or 10 μM
Source text: To assess the mechanism of action of hit compounds from the screens of previous Examples, which were based on rescue of viability after metabolic challenge, Seahorse assay was used to measure mitochondrial function in response to treatment at multiple concentrations. The Seahorse assay measures the following parameters: oxygen consumption; basal respiration rate; ATP-linked respiration; maximal respiration; reserve capacity; and ATP production rate. At baseline (no treatment), the ECHS1 patient-derived fibroblasts had lower respiration rates than the control fibroblasts in glucose culturing conditions (20% reduction) and in galactose culturing conditions (30% reduction).
ECHS1 patient-derived fibroblasts and age-matched and sex-matched control fibroblasts were initially grown in standard media (DMEM+2 mM glutamine+1 mM pyruvate) containing 10 mM glucose as the energy source. Cells were seeded into specialized 96-well plates at a density of 10,000 cells per well. One day after plating, cells were treated with the test compounds at the concentrations of 0, 1, 5, or 10 μM. Half of the samples were cultured in 10 mM glucose media in addition to the test compounds. The remaining half of the sample were cultured in 10 mM galactose media, which is a metabolic challenge, in addition to the test compound. Test compounds were incubated with cells for 48 hours. According to the standard Seahorse protocol, the following stressors were added to cells in sequential order: 2 μM oligomycin; 5 μM carbonyl cyanide-4-(trifluoromethoxy)phenylhydrazone (FCCP); 9 μM FCCP; 2 μM rotenone and 2 μM antimycin A. Data were normalized to cell number per well using a Hoechst stain for cell nuclei. Two rounds of experiments were conducted. The results were consistent between the two rounds.

[3] = system: ECHS1 Fibroblast cells; experiment: Galactose potency screen (cell viability, DAPI nuclei count); settings: for Galactose assay hits: 5.5 mM galactose medium, 96 hours, 3-fold serial dilution starting at 10 uM, Z-score >2
Method: Galactose Screen: Compound library plates were obtained from Prestwick/Selleck and SPECS (7,591 compounds total, 27 compounds/plate/concentration at 1 μM and 10 μM, 384-well plates). ECHS1 Fibroblast cells were harvested at 95% confluent with trypsin and suspended in Dulbecco's Modified Eagle Medium (DMEM)+10% Fetal Bovine Serum (FBS). The suspension was centrifuged at 200x g for 5 min. The suspension was discarded and the pellet was resuspended in the 5.5 mM galactose medium (DMEM+10% FBS+5.5 mM galactose) and seeded at 750 cells/well (50 μL) into the compound wells (1 μM and 10 μM). For the positive control experiment, the cells were suspended in 5.5 mM galactose medium+5.5 mM glucose+0.01% DMSO and seeded at 750 cells/well (50 μL) into the blank wells. For the negative control experiment, the cells were suspended in the 5.5 mM galactose medium+0.01% DMSO and seeded at 750 cells/well (50 μL) into the blank wells. The seeded plates were incubated at 37° C. for 96 hours, then 15 μL/well of 16% paraformaldehyde solution was added to the plates and allowed to sit for 15 min to fix the cells. The plates were then washed 3x with 50 μL/well of phosphate-buffered saline (PBS). The cells were stained with […] of a solution of 4,6-diamidino-2-phenylindole dilactate (DAPI, Invitrogen) and left at room temperature for 1 hr. The plates were then washed 3x with 50 μL/well of PBS prior to imaging. Agilent BioTek EL406 Microplate Washer Dispenser was used for the cell fixation and staining protocol. The plates were imaged using GE InCell2200 Cell Analyzer using PerkinElmer Columbus software quantification protocol. The data was analyzed using Genedata, Vortex, and Abase software. A Z-score value of >2 was used for the Prestwick/Selleck compound library and >3 for the SPECS library (based on the negative control population) to determine hit selection.
ECHS1 Fibroblast cells were harvested at 70-80% confluent with trypsin and suspended in DMEM+10% FBS. The suspension was centrifuged at 200x g for 5 min. The suspension was discarded and the pellet was resuspended in the either the 5.5 mM galactose medium (DMEM+10% FBS+5.5 mM of galactose) or the 10 mM propionate medium (DMEM+10% FBS+10 mM sodium propionate). The cells were seeded at 750 cells/well (50 μL) into a 384-well plate containing the test compounds (3-fold serial dilution across 10 plates, starting at 10 uM). For the positive control experiment, the cells were suspended in either the 5.5 mM galactose medium or 10 mM propionate medium+5.5 mM glucose+0.01% DMSO and seeded at 750 cells/well (50 μL) into the blank wells. For the negative control experiment, the cells were suspended in the 5.5 mM galactose or 10 mM propionate medium +0.01% DMSO and seeded at 750 cells/well (50 μL) into the blank wells. The seeded plates were incubated at 37° C. for 96 hours, then 15 μL/well of 16% paraformaldehyde solution was added to the plates and allowed to sit for 15 min to fix the cells. The plates were then washed 3x with 50 μL/well of PBS. The cells were stained with 25 μL/well of a solution of DAPI and left at room temperature for 1 hr. The plates were then washed 3x with 50 μL/well of PBS prior to imaging. Agilent BioTek EL406 Microplate Washer Dispenser was used for the cell fixation and staining protocol. The plates were imaged using GE InCell2200 Cell Analyzer using PerkinElmer Columbus software quantification protocol. The data was analyzed using Genedata, Vortex, and Abase software. A Z-score value of >2 was used for both the Prestwick/Selleck and SPECS library (based on the negative control population) to determine hit selection.

SMILES: CCCCOc1c(C(=O)c2c(F)cc(C)cc2F)cnc2n[nH]cc12 [BMS-265246, (4-butoxy-2H-pyrazolo[3,4-b]pyridin-5-yl)-(2,6-difluoro-4-methylphenyl)methanone]
- concentration-dependent curves [1]: non-linear response

SMILES: CNC(C)C(=O)NC1CCCCC2CCC(C(=O)NC(c3ccccc3)c3cn(CCCCc4ccc(CCCCn5cc(C(NC(=O)C6CCC7CCCCC(NC(=O)C(C)NC)C(=O)N76)c6ccccc6)nn5)cc4)nn3)N2C1=O [SM-164, (3S,6S, 10aS)-N-[(S)-[1-[4-[4-[4-[4-[(S)-[[(3S,6S,10aS)-6-[[(2S)-2-(methylamino)propanoyl]amino]-5-oxo-2,3,6,7,8,9,10,10a-octahydro-1H-pyrrolo[1,2-a]azocine-3-carbonyl]amino]-phenylmethyl]triazol-1-yl]butyl]phenyl]butyl]triazol-4-yl]-phenylmethyl]-6-[(2S)-2-(methylamino)propanoyl]amino]-5-oxo-2,3,6,7,8,9,10,10a-octahydro-1H-pyrrolo[1,2-a]azocine-3-carboxamide]
- concentration-dependent curves [1]: non-linear response

SMILES: CCOC(=O)C1=C(C)NC(C)=C(C(=O)OC)C1c1cccc(Cl)c1Cl (stereo not shown) [felodipine, 5-O-ethyl 3-O-methyl 4-(2,3-dichlorophenyl)-2,6-dimethyl-1,4-dihydropyridine-3,5-dicarboxylate]
- ATP production from glycolysis [2]: increased
- basal and maximal respiration [2]: decreased
- respiration [2]: did not result in major changes

SMILES: Cc1cccc(-c2n[nH]cc2-c2ccc3ncccc3n2)n1 [RepSox, 2-[5-(6-methylpyridin-2-yl)-1H-pyrazol-4-yl]-1,5-naphthyridine]
- respiration [2]: did not result in major changes
- Propionate assay hits [1]: hits
- Galactose assay hits [3]: hits

SMILES: COc1ccc(-n2c(C)c([N+](=O)[O-])c3ccc(O)cc32)cc1 [ID-8, 1-(4-methoxyphenyl)-2-methyl-3-nitroindol-6-ol]
- concentration-dependent curves [1]: non-linear response

SMILES: CCC(=O)Nc1cccc(Oc2nc(Nc3ccc(N4CCN(C)CC4)cc3OC)ncc2Cl)c1 [WZ4003, N-[3-[5-chloro-2-[2-methoxy-4-(4-methylpiperazin-1-yl)anilino]pyrimidin-4-yl]oxyphenyl]propanamide]
- nuclei count ([1]; propionate assay, FIG. 3): concentration-dependent increase
- concentration-dependent curves [1]: non-linear response

SMILES: Fc1ccc(-c2nc(-c3c(F)cccc3F)[nH]c2-c2ccncc2)cc1 [TA-01, 4-[2-(2,6-difluorophenyl)-4-(4-fluorophenyl)-1H-imidazol-5-yl]pyridine]
- Propionate assay hits [1]: hits
- Galactose assay hits [3]: hits

SMILES: Cc1ccc(-n2nc(C(C)(C)C)cc2NC(=O)NCc2cc(F)ccc2Oc2ccc3c(cnn3CCO)c2)cc1 [pexmetinib]
- increase in cell number per well ([2]; 1 μM, both galactose and glucose cultured plates): 14%
- total ATP production ([2]; most pronounced in the 1-5 μM range): some recovery
- maximal respiration ([2]; galactose-treated cells): less pronounced
- maximal respiration ([2]; glucose-treated cells): increased to similar levels to the control cells
- Propionate assay hits [1]: hits
- concentration-dependent curves [1]: non-linear response
- Galactose assay hits [3]: hits

SMILES: COc1nccc(-c2c(-c3ccc(F)cc3)ncn2[C@H]2CC[C@H](O)CC2)n1 [SB-239063, 4-[4-(4-fluorophenyl)-5-(2-methoxypyrimidin-4-yl)imidazol-1-yl]cyclohexan-1-ol]
- nuclei count ([3]; galactose assay, FIG. 1): concentration-dependent increase
- concentration-dependent curves ([3]; galactose potency screen, FIG. 2): non-linear response

Source: patent publication US20240316055A1, “METHODS FOR TREATING LEIGH SYNDROME” (DBCC Research, LLC, priority 2023, published 2024)
